Patent US5925769A, “Acetylenic 1,5-diarylpyrazoles as antiinflammatory agents” (Ortho Pharmaceutical, Corp., priority 1998, dated 1999)

Assays:
[1] = molecular target: T1, 5-LO (Rattus norvegicus, UniProt P12527); assay: Procedure III: 5-LO (5-HETE) in intact RBL-1 cells; assay type: cell-based; conditions: calcium ionophore A 23187, read-out: Proc. III 5-LO IC50
T1 construct: the supernatant was saved as the source of enzymes; endogenous in cells; host or cells: RBL-1 (rat basophilic leukemia) cells
T1 sequence (P12527 1-673): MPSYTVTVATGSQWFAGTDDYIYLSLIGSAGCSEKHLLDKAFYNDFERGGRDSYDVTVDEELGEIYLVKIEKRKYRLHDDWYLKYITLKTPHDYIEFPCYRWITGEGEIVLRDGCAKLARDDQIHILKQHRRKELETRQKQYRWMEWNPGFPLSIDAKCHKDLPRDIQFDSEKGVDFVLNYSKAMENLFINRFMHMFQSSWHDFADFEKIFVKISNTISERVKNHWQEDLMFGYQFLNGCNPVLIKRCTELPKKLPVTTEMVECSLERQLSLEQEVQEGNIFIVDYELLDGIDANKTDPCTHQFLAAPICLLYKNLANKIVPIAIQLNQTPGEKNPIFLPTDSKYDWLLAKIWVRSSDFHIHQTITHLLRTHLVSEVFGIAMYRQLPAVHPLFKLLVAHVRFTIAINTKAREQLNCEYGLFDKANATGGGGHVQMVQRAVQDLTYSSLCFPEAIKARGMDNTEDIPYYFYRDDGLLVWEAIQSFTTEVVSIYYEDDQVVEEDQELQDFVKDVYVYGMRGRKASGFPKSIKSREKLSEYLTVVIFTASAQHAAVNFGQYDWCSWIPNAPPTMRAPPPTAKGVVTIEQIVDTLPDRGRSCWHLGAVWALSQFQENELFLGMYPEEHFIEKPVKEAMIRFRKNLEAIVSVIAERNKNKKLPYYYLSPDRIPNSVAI
Description: (§1) The IC50 was determined using a curve fit in Cricket Graph (Computer Associated), which provided the equation of the regressed line used in the calculation.
(§2) In Procedure III, the ability to inhibit 5-LO and CO in intact RBL-1 cells was also evaluated. […] Cells were collected by centrifugation, washed once in HBSS, and resuspended at a concentration of 1×10^5 cells/mL. Cells were incubated in the presence of vehicle or drug then centrifuged at 800×g for 10 minutes at 4° C. The supernatant was removed by aspiration and the cells were resuspended in 0.5 mL of HBSS. […] The conversion of AA to 5-LO products was initiated by the addition of 10 μL (50 μCi) of 1-^14 C-AA. Products were isolated by acidification and extraction, followed by thin layer chromatography analysis as described above. Radioactive areas corresponding to authentic 5-LO (5-HETE) and CO (PgD2) products were quantitated by the Bioscan 2000 Imaging System and the IC50 was calculated as above.

[2] = molecular target: T2, Sheep seminal vesicle (SSV) cyclooxygenase (Ovis aries, UniProt P05979); assay: Procedure I: inhibition of sheep seminal vesicle (SSV) cyclooxygenase; assay type: biochemical; conditions: SSV cyclooxygenase; for inhibition at 10 µM: 20 min, @ 10 .quadrature.M, read-out: Proc. I % inhibition; for IC50: read-out: Proc. I IC50
T2 construct: Sheep seminal vesicle (SSV) cyclooxygenase (95% pure); purchased Biomol (Plymouth Meeting, PA); host or cells: sheep seminal vesicle
T2 sequence (P05979 25-600): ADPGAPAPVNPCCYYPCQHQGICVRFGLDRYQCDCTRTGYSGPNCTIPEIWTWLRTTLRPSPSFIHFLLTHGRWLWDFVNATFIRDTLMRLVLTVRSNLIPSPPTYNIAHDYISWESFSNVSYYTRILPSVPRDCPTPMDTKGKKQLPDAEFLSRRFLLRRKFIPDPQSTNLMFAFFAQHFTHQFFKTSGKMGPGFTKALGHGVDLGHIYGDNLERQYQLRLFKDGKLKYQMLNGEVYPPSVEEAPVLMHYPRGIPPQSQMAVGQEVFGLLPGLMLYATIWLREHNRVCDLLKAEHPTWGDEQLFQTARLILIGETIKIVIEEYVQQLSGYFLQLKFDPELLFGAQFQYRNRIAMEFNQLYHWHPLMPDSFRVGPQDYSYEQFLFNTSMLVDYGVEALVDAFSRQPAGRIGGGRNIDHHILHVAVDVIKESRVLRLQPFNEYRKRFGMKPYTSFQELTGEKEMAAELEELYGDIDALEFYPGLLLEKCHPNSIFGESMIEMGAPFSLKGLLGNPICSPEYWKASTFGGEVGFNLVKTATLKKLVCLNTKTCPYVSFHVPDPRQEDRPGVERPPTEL
Description: Procedure I was used to determine the ability of the compounds to inhibit cyclooxygenase. […] The enzyme was divided into 200 μL aliquots, snap frozen with liquid N2, and stored at -70° C. until immediately prior to use. […] The tubes were mixed on a vortex shaker, preincubated for 5 min at 37° C. prior to the initiation of the reaction. The reaction was started by the addition of [^14 C]-arachidonic acid (1-^14 C-AA, Amersham, Arlington Heights, Ill.) in 10 μL of methanol. Tubes were again vortexed and incubated in a water bath for 20 minutes after which the tubes were removed and the reaction stopped by acidification with the addition of 1 mL 2M formic acid. Lipophilic products were extracted with 3 mL chloroform and concentrated to dryness under N2. Each pellet was reconstituted with 40 μL of chloroform and spotted on a Whatman Silicon thin-layer chromatography plate and developed in a chromatography tank containing A-9 solvent (11:5:2:1 V:V:VV, ethyl acetate:trimethyl-pentane:acetic acid:double distilled-H2 O). Radioactive cyclooxygenase products (prostaglandin D2, prostaglandin E2, etc.) were measured using a Bioscan System 200 Imaging Scanner. Inhibition of enzyme activity was calculated by comparing the areas under the curve produced in the presence or absence of test compound.

[3] = molecular target: T3, CO (Rattus norvegicus, UniProt Q63921); assay: Procedure III: CO (PgD2) in intact RBL-1 cells; assay type: cell-based; conditions: calcium ionophore A 23187, read-out: Proc. III CO IC50
T3 construct: the supernatant was saved as the source of enzymes; endogenous in cells; host or cells: RBL-1 (rat basophilic leukemia) cells
T3 sequence (Q63921 27-602): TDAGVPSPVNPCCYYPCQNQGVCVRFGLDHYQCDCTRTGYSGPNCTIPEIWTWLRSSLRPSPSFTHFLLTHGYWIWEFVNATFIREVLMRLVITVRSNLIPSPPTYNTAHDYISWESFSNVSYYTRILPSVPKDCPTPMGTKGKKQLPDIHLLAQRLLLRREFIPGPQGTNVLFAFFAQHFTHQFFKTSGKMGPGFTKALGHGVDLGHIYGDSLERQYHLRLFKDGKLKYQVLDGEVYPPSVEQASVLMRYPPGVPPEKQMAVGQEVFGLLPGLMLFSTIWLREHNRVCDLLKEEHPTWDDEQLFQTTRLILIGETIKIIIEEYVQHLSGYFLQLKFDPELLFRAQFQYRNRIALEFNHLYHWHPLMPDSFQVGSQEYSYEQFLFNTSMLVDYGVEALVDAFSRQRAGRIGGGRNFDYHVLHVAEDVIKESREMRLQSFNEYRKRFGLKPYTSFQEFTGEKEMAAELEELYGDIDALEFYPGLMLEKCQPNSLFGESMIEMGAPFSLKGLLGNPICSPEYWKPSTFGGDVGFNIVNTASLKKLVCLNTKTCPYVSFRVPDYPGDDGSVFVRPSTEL
Description: as §1, §2

[4] = molecular target: T1, 5-LO; assay: Procedure II: 5-LO activity (5-HETE) in broken RBL-1 cells (homogenate supernatant); assay type: biochemical; conditions: RBL-1 broken cell supernatant; for IC50: read-out: Proc. II 5-LO IC50; for inhibition at 10 µM: 20 min, @ 10 .quadrature.M, read-out: Proc. II 5-LO % inhibition
Description: (§3) Procedure II was used to assess LO and CO activity. Rat basophilic leukemia cells (RBL-1; 5×10^7 viable cells/mL) were disrupted by homogenization on ice (four 20 sec bursts) with a Brinkman polytron. […] The homogenate was then centrifuged at 9,220×g for 48 minutes at 4° C. The pellet was discarded and the supernatant was saved as the source of enzymes. The supernatant was pre-incubated for five minutes at 37° C. in the presence of 2 mM of CaCl2 and compound or vehicle (1% DMSO). The conversion of AA into products by CO and LO was initiated by adding 10 μL (50 μCi) of 1-^14 C-AA to each tube and incubated at 37° C. for 20 minutes. The reaction was stopped by adjusting the pH of each sample to 3 to 3.5 with 2M formic acid. Samples were extracted with three volumes of chloroform to isolate the products of 5-LO formed during the reaction. Fractions were dried under nitrogen, then resuspended in 40 μL of chloroform and spotted onto silica gel HL plates. The plates were developed in A-9 solvent. The dried plates were analyzed using a Bioscan Imaging TLC scanner to determine the percentage of radiolabelled AA converted to 5-HETE (LO product) in each sample. The percentage of inhibition was calculated by:
(§4) [1-(5-HETE test)]/5-HETE control×100=% inhibition
as §1

[5] = molecular target: T3, CO; assay: Procedure II: CO activity in broken RBL-1 cells (homogenate supernatant); assay type: biochemical; conditions: RBL-1 broken cell supernatant; for IC50: read-out: Proc. II CO IC50; for inhibition at 10 µM: 20 min, @ 10 .quadrature.M, read-out: Proc. II CO % inhibition
Description: as §3, §4, §1

SMILES | IC50 [1] | inhibition at 10 µM [2] | IC50 [3] | IC50 [4] | IC50 [5] | inhibition at 10 µM [4] | inhibition at 10 µM [5] | IC50 [2]
CCC(C#Cc1cc(-c2ccc(C)cc2)n(-c2ccc(OC)cc2)n1)N(O)C(N)=O (stereo not drawn) [Cpd 3] | 21.3 µM | 22% | 2100 nM | 70 nM | 15900 nM |  |  | 
CCC(=O)N(O)CC#Cc1cc(-c2ccc(C)cc2)n(-c2ccc(OC)cc2)n1 [Cpd 14] | 3 µM | 79% | 60 nM |  |  | 100% | 100% | 
COc1ccc(-n2nc(C#CC(C)N(O)C(=O)Cn3ccnc3)cc2-c2ccc(C)cc2)cc1 (stereo not drawn) [Cpd 43, N-(imidazol-1-yl)acetyl-N-(1-(1-(4-methoxyphenyl)-5-(4-methylphenyl)pyrazol-3-yl)-1-butyn-3-yl)hydroxylamine] | 38.7 µM |  | 3600 nM |  |  | 67% | 13% | 10 µM
COc1ccc(-n2nc(C#CC(C(C)C)N(O)C(N)=O)cc2-c2ccc(Cl)cc2)cc1 (stereo not drawn) [Cpd 12] | 3.9 µM | 38% | 14500 nM |  |  | 90% | 0% | 
CCc1ccc(-c2cc(C#CC(C)N(O)C(=O)OC)nn2-c2ccc(OC)cc2)cc1 (stereo not drawn) [Cpd 34] | 57.4 µM | 21% | 750 nM |  |  | 78% | 72% | 
CCOC(=O)C(=O)N(O)C(C)C#Cc1cc(-c2ccc(C)cc2)n(-c2ccc(OC)cc2)n1 (stereo not drawn) [Cpd 24] | 8.5 µM | 66% | 3400 nM |  |  | 71% | 50% | 
COc1ccc(-n2nc(C#CC(C)N(O)C(=O)C(C)C)cc2-c2ccc(C)cc2)cc1 (stereo not drawn) [Cpd 20, N-isobutyryl-N-(1-(1-(4-methoxyphenyl) -5(4-methylphenyl)pyrazol-3-yl)-1-butyn-3-yl)hydroxylamine] | 5.6 µM |  | 90 nM | 100 nM | 40 nM |  |  | 0.39 µM
COc1ccc(-n2nc(C#CC(C)N(O)C(=O)c3cccnc3)cc2-c2ccc(C)cc2)cc1 (stereo not drawn) [Cpd 26] | 25.4 µM |  | 11500 nM |  |  | 88% | 54% | 6 µM
COc1ccc(-n2nc(C#CCN(O)C(=O)c3ccncc3)cc2-c2ccc(C)cc2)cc1 [Cpd 16] | 26.6 µM | 17% | 5500 nM |  |  | 89% | 66% | 
CCc1ccc(-c2cc(C#CC(C)N(O)C(C)=O)nn2-c2ccc(OC)cc2)cc1 (stereo not drawn) [Cpd 29, N-acetyl-N-(1-(5-(4-ethylphenyl)-1-(4-methoxyphenyl)pyrazol-3-yl)-1-butyn-3-yl)hydroxylamine] | 11.9 µM |  | 340 nM | 270 nM | 60 nM |  |  | 2.51 µM
COc1ccc(-n2nc(C#CC(C)N(O)C(N)=O)cc2-c2ccc(Cl)cc2)cc1 (stereo not drawn) [Cpd 6] | 3.5 µM |  | 6200 nM | 10 nM |  |  | 0% | 32 µM
CCC(C#Cc1cc(-c2ccc(C)cc2)n(-c2ccc(OC)cc2)n1)N(O)C(C)=O (stereo not drawn) [Cpd 28, N-acetyl-N-(1-(1-(4-methoxyphenyl)-5-(4-methylphenyl)pyrazol-3-yl)-1-pentyn-3-yl)hydroxylamine] | 10.7 µM |  | 220 nM | 70 nM | 10 nM |  |  | 0.43 µM
